Test results from the C3SDB collision cross section collection.
Values joined by “and” are separate entries in the source; they are usually repeats but may differ in a detail not shown here. Equal entries are not always repeated.

What was measured:
[1] = instrument: TW, calibrated with polyalanine
[2] = [M-H]-; instrument: DT; stepped-field
[3] = [M-H]-; instrument: TW; calibrated with phosphatidylcholines (ESI+) and phosphatidylethanolamines (ESI-)
[4] = instrument: TW, calibrated with phosphatidylcholines (ESI+) and phosphatidylethanolamines (ESI-)
[5] = instrument: DT, single field, calibrated with Agilent tune mix (Agilent)

| Compound | collision cross section (N2) ([1]; [M+H]+) [Å²] | collision cross section (N2) ([1]; [M+K]+) [Å²] | collision cross section (N2) ([1]; [M+Na]+) [Å²] | collision cross section (N2) [3] [Å²] | also measured |
| --- | --- | --- | --- | --- | --- |
| COc1cc2c(c3oc(=O)c4c(c13)CCC4=O)[C@@H]1CCO[C@@H]1O2 [Aflatoxin B2] | 162 | 181.4 | 176.8 |  |  |
| Cc1cc(O)cc2oc(=O)c3c(O)cc(O)cc3c12 [Alternariol] |  |  |  |  | collision cross section (N2) ([1]; [M-H]-): 146 Å² |
| CC(C)[C@H]1OC(=O)[C@H](Cc2ccccc2)N(C)C(=O)[C@@H](C(C)C)OC(=O)[C@H](Cc2ccccc2)N(C)C(=O)[C@@H](C(C)C)OC(=O)[C@H](Cc2ccccc2)N(C)C1=O [Beauvericin] | 283.8 | 290.3 | 287.4 |  | collision cross section (N2) ([1]; [M+NH4]+): 269 Å² |
| CC[C@H](C)[C@H]1C(=O)O[C@H](C(C)C)C(=O)N(C)[C@@H]([C@@H](C)CC)C(=O)O[C@H](C(C)C)C(=O)N(C)[C@@H](C(C)C)C(=O)O[C@H](C(C)C)C(=O)N1C [Enniatin A1] | 252.2 | 257.9 | 258 |  | collision cross section (N2) ([1]; [M+NH4]+): 259 Å² |
| CC[C@H](C)[C@H]1C(=O)O[C@H](C(C)C)C(=O)N(C)[C@@H]([C@@H](C)CC)C(=O)O[C@H](C(C)C)C(=O)N(C)[C@@H]([C@@H](C)CC)C(=O)O[C@H](C(C)C)C(=O)N1C [Enniatin A] | 257.9 | 264.7 | 262.4 |  | collision cross section (N2) ([1]; [M+NH4]+): 264 Å² |
| CCCC[C@@H](C)[C@@H](OC(=O)C[C@@H](CC(=O)O)C(=O)O)[C@H](C[C@@H](C)C[C@H](O)CCCC[C@@H](O)C[C@H](O)[C@H](C)N)OC(=O)C[C@@H](CC(=O)O)C(=O)O [Fumonisin B1] | 258 | 269 | 264.4 |  |  |
| CCCC[C@@H](C)[C@@H](OC(=O)CC(CC(=O)O)C(=O)O)[C@H](C[C@@H](C)C[C@H](O)CCCCCC[C@@H](O)[C@H](C)N)OC(=O)CC(CC(=O)O)C(=O)O (stereo partly specified) [Fumonisin B3] | 258 | 264.5 | 259.2 |  |  |
| CCCC[C@@H](C)[C@@H](OC(=O)C[C@@H](CC(=O)O)C(=O)O)[C@H](C[C@@H](C)CCCCCCCC[C@H](O)[C@H](C)N)OC(=O)C[C@@H](CC(=O)O)C(=O)O [Fumonisin B4] | 255 | 264.6 | 260.4 |  |  |
| C=CC(C)(C)[C@@]12C=C(O)C(=O)N3/C(=C/c4cnc[nH]4)C(=O)N[C@]31N(OC)c1ccccc12 [Meleagrin] | 201 |  |  |  |  |
| COc1c(C)c2c(c(O)c1C/C=C(\C)CCC(=O)O)C(=O)OC2 [Mycophenolic acid] |  |  |  |  | collision cross section (N2) ([1]; [M+NH4]+): 176 Å² |
| CCCCCCCCCC/C=C\CCCCCCCCCC(=O)O[C@H](COC(=O)CCCCCCCCCCC)COP(=O)(O)O [PA(16:0/18:1)] |  |  |  | 256.3 | collision cross section (N2) [2]: 259.2 Å² |
| CCCCCCCC/C=C\CCCCCCCCCC(=O)O[C@H](COC(=O)CCCCCCCCCCC)COP(=O)(O)OC[C@@H](O)CO [PG(32:1)] |  |  |  | 263.3 | collision cross section (N2) ([4]; [M+Na]+): 274.1 Å²; collision cross section (N2) ([4]; [M-H]-): 262.5 Å²; collision cross section (N2) [2]: 270.4 Å²; collision cross section (N2) ([5]; [M-H]-): 263.3 Å² |
| CCCCCCCCCCCCCCCCCCCC(=O)OC[C@H](COP(=O)(O)OC[C@@H](O)CO)OC(=O)CCCCCCCCCCCCC [PG(34:0)] |  |  |  | 270.8 | collision cross section (N2) ([4]; [M+Na]+): 282.2 Å²; collision cross section (N2) ([4]; [M-H]-): 269 Å²; collision cross section (N2) [2]: 277.6 Å² |
| CCCCCCCCCC/C=C\CCCCCCCCCC(=O)O[C@H](COC(=O)CCCCCCCCCCC)COP(=O)(O)OC[C@@H](O)CO [PG(34:1)] |  |  |  | 269.9 | collision cross section (N2) ([4]; [M+Na]+): 281.1 Å²; collision cross section (N2) ([4]; [M-H]-): 268.9 Å²; collision cross section (N2) ([5]; [M+H]+): 286.8 Å²; collision cross section (N2) ([5]; [M+NH4]+): 287.3 Å²; collision cross section (N2) ([5]; [M-H]-): 270.2 Å² |
| CCCC/C=C\CCCCCCCC(=O)OC[C@H](COP(=O)(O)OC[C@@H](O)CO)OC(=O)CCCCCCCCC/C=C\CCCCCCCCCC [PG(36:2)] |  |  |  | 274.9 | collision cross section (N2) ([4]; [M+Na]+): 284.7 Å²; collision cross section (N2) ([4]; [M-H]-): 274.3 Å²; collision cross section (N2) [2]: 282.3 Å² and 281.9 Å²; collision cross section (N2) ([5]; [M+H]+): 288.9 Å²; collision cross section (N2) ([5]; [M+Na]+): 286 Å² |
| CCCC/C=C\CCCCCCCC(=O)O[C@H](CO/C=C\CCCCCCCCCCCCCC)COP(=O)(O)OC[C@@H](O)CO [PG(p30:1)] |  |  |  | 255.3 |  |
| CCCC/C=C\CCCCCCCC(=O)O[C@H](CO/C=C\CCCCCCCCCCCCCCCC)COP(=O)(O)OC[C@@H](O)CO [PG(p32:1)] |  |  |  | 262.1 |  |
| CCCC/C=C\C/C=C\CCCCCCCC(=O)O[C@H](CO/C=C\CCCCCCCCCCCCCC)COP(=O)(O)OC[C@@H](O)CO [PG(p33:2)] |  |  |  | 263.4 |  |
| O=C1C=C2C(=CCOC2O)O1 (stereo unspecified) [Patulin] |  |  |  |  | collision cross section (N2) ([1]; [M+H3C2O2]-): 142 Å² |
| C=C(C)C(=O)/C(=C/C(=O)O)OC [Penicillic acid] | 131 |  |  |  |  |
| C[C@H]1CCC[C@H](O)CCC/C=C/c2cc(O)cc(O)c2C(=O)O1 [alpha-zearalenol] |  |  |  |  | collision cross section (N2) ([1]; [M-H]-): 173 Å² |
